Settings: 101.33 kPa, Liquid

CN(CCO)CCO [N-methyldiethanolamine]
Settings | mass density [kg/m3]
298.15 K | 1038.22
303.15 K | 1034.49
308.15 K | 1030.75
313.15 K | 1026.99
318.15 K | 1023.25
323.15 K | 1019.47
328.15 K | 1015.64
333.15 K | 1011.8
338.15 K | 1007.92

Source: the NIST ThermoML archive (doi:10.1021/je800416y)
